Patent US7846963B2, “2-oxo-heterocyclic compounds and the pharmaceutical compositions comprising the same” (Korea Research Institute of Bioscience and Biotechnology, priority 2003, dated 2010)

Each compound was assayed on production of nitric oxide (NO) in RAW 264.7 cells (assay: Inhibition of NO (nitrite) production in LPS-activated RAW 264.7 macrophages, Griess reagent). Conditions: Table 22, cited in b622 as nitrite/NO production result, LPS 0.3 μg/ml, 24 hours, compounds up to 10 μM, IC50 unit not given.
Format: cell-based, mouse
Protocol: To test the inhibiting activity of the compounds prepared from above Examples 1 to 6 on the production of nitric oxide (NO) caused by activated macrophage by lipopolysaccharide (LPS), the amount of accumulated […] in the cells was determined as an indicator of NO production in the medium.
(§1) Each 200 μl of RAW 264.7 cells (ATCC, USA), a mouse macrophage cell line was seeded onto each well of 96-well microtiter plate (Nunc, Sweden) to the concentration ranging from 1×10^6 cells/ml to 5×10^6 cells/ml, and incubated in DMEM (Dulbeco's modified eagles medium) media containing 5% FBS (fetal bovine serum) at 37° C. in 5% CO2 incubator.
(§2) Various concentrations of the compounds of the present invention ranging from […] to 10 μM and LPS (Sigma, USA) in the final concentration of 0.3 μg/ml to activate the cell were treated to activate the cell simultaneously. The treated cells were cultured at 37° C. for 24 hours in 5% CO2 incubator and the cultured cells were collected after the cultivation.
And then, to the collected cell culture, an equal volume of Griess reagent (1% sulfanilamide, 0.1% naphthylethylenediamine dihydrochloride, and 2% phosphoric acid) was added and the culture was incubated at room temperature for 10 mins. The amount of nitrite production was determined by measuring the absorbance at 540 nm versus a NaNO2 standard curve. […]

**Q.** For `O=C(CCC1=CCN(CCCc2ccc3ccccc3c2)C1=O)NO` [Example 56, N-hydroxy-3-[1-(3-naphthalene-2-yl-propyl)-2-oxo-2,5-dihydro-1H-pyrrol-3-yl]-propionamide], which NO production inhibition is on record?
**A.** AAA

**Q.** For `Cc1ccc(CCN2CC=C(CCC(=O)NO)C2=O)cc1` [Example 39, N-hydroxy-3-[2-oxo-1-(2-p-tolyl-ethyl)-2,5-dihydro-1H-pyrrol-3-yl]-propionamide], which NO production inhibition is on record?
**A.** AAA

What follows are compounds tested on production of TNF-alpha in RAW 264.7 cells (assay: Inhibition of TNF-alpha production in LPS-treated RAW 264.7 cells, ELISA of culture supernatant). Conditions: Mus musculus, RAW264.7, Table 23, LPS 0.3 μg/ml, 24 hours, compounds up to 10 μM, IC50 unit inferred.
Format: cell-based, mouse
Design: TNF-alpha inhibition: scale not given here
Protocol: To test the inhibiting activity of the compounds prepared from above Examples on the production of TNF-alpha, the concentration of TNF-alpha in the cell supernatant was measured.
as §1
as §2, with “μg/ml” for “μg/ml to activate the cell”, “activated” for “activate the”, “cultivation” for “cultivation.”
And then the concentration of TNF-alpha secreted from the culture supernatant of RAW 264.7 cells was determined by ELISA according to the manufacture's instruction (R&D Systems, Minneapolis, Minn.).
The result was shown in Table 23 (AA: IC50's<1, A: IC50's<5, B: IC50's<10, C: IC50's>10).

**Q.** `O=C(CC1CCN(Cc2ccccc2)C1=O)NO` (centres unmarked) [Example 25, 2-(1-benzyl-2-oxo-pyrrolidin-3-yl)-N-hydroxy-acetamide] was tested. Which IC50 did it give?
**A.** > 10 µM

**Q.** For `COc1ccc(CN2CCC=C(CC(=O)O)C2=O)c(OC)c1` [Example 87, [1-(2,4-dimethoxy-benzyl)-2-oxo-1,2,5,6-tetrahydro-pyridin-3-yl]-acetic acid], which IC50 is on record?
**A.** < 1 µM

**Q.** With `COc1ccc(CCCN2CC=C(CCC(=O)NO)C2=O)cc1` [Example 46, N-hydroxy-3-{1-[3-(4-methoxy-phenyl)-propyl]-2-oxo-2,5-dihydro-1H-pyrrol-3-yl]-propionamide] as the compound, how does the IC50 read?
**A.** < 10 µM

**Q.** For `Cc1ccc(CCCN2CC=C(CCC(=O)NO)C2=O)cc1` [Example 40, N-hydroxy-3-[2-oxo-1-(3-p-tolyl-propyl)-2,5-dihydro-1H-pyrrol-3-yl]-propionamide], which IC50 is on record?
**A.** < 1 µM

**Q.** `CC(=O)Nc1ccc(CN2CCC=C(CCC(=O)NO)C2=O)cc1` [Example 74, 3-[1-(4-acetylamino-benzyl)-2-oxo-1,2,5,6-tetrahydro-pyridin-3-yl]-N-hydroxy-propionamide] was tested. Which IC50 did it give?
**A.** > 10 µM

**Q.** With `CN1CC=C(CCC(=O)NO)C1=O` [Example 50, N-hydroxy-3-(1-methyl-2-oxo-2,5-dihydro-1H-pyrrol-3-yl)-propionamide] as the compound, how does the IC50 read?
**A.** > 10 µM

**Q.** How did the IC50 turn out when `O=C(CCC1=CCN(Cc2ccc(Br)cc2)C1=O)NO` [Example 12, 3-[1-(4-bromo-benzyl)-2-oxo-2,5-dihydro-1H-pyrrol-3-yl]-N-hydroxy-propionamide] was run?
**A.** < 1 µM

**Q.** For `CC(=O)Nc1ccc(CN2CCC=C(CCC(=O)O)C2=O)cc1` [Example 78, 3-[1-(4-acetylamino-benzyl)-2-oxo-1,2,5,6-tetrahydro-pyridin-3-yl]-propionic acid], which IC50 is on record?
**A.** < 5 µM

**Q.** `COc1ccc(CN2CCC=C(CCCC(=O)NO)C2=O)cc1` [Example 95, 4-[1-(4-methoxy-benzyl)-2-oxo-1,2,5,6-tetrahydro-pyridin-3-yl]-N-hydroxy-butylamide] was tested. Which IC50 did it give?
**A.** < 5 µM

**Q.** With `O=C(CC1=CCN(CCCCc2ccccc2)C1=O)NO` [Example 23, N-hydroxy-2-[2-oxo-1-(4-phenyl-butyl)-2,5-dihydro-1H-pyrrol-3-yl]-acetamide] as the compound, how does the IC50 read?
**A.** > 10 µM

**Q.** Which IC50 does the source give for `CN1CCC=C(CCC(=O)NO)C1=O` [Example 102, N-hydroxy-3-(1-methyl-2-oxo-1,2,5,6-tetrahydro-pyridin-3-yl)-propionamide] here?
**A.** < 1 µM

**Q.** Which IC50 does the source give for `O=C(CCC1=CCN(CCc2cccc([N+](=O)[O-])c2)C1=O)NO` [Example 32, N-hydroxy-3-{1-[2-(3-nitro-phenyl)-ethyl]-2-oxo-2,5-dihydro-1H-pyrrol-3-yl}-propionamide] here?
**A.** > 10 µM

**Q.** How did the IC50 turn out when `O=C(CCC1=CCCN(Cc2ccc([N+](=O)[O-])cc2)C1=O)NO` [Example 59, N-hydroxy-3-[1-(4-nitro-benzyl)-2-oxo-1,2,5,6-tetrahydro-pyridin-3-yl)-propionamide] was run?
**A.** < 5 µM

**Q.** Which IC50 does the source give for `O=C(O)CC1=CCCN(Cc2ccccc2)C1=O` [Example 88, (1-benzyl-2-oxo-1,2,5,6-tetrahydro-pyridin-3-yl)-acetic acid] here?
**A.** < 1 µM

**Q.** Which IC50 does the source give for `COc1ccc(CN2CCC=C(CCC(=O)O)C2=O)c(OC)c1` [Example 63, 3-[1-(2,4-dimethoxybenzyl)-2-oxo-1,2,5,6-tetrahydro-pyridin-3-yl]-propionic acid] here?
**A.** > 10 µM

**Q.** For `O=C(O)CCC1=CCCN(Cc2ccc([N+](=O)[O-])cc2)C1=O` [Example 65, 3-[1-(4-nitro-benzyl)-2-oxo-1,2,5,6-tetrahydro-pyridin-3-yl)-propionic acid], which IC50 is on record?
**A.** > 10 µM

**Q.** `O=C(CCCC1=CCCN(CCc2ccccc2)C1=O)NO` [Example 96, 4-(1-phenethyl-2-oxo-1,2,5,6-tetrahydro-pyridin-3-yl)-N-hydroxy-butylamide] was tested. Which IC50 did it give?
**A.** < 5 µM

**Q.** `O=C(O)CCC1=CCCNC1=O` [Example 99, 3-(2-oxo-1,2,5,6-tetrahydro-pyridin-3-yl)-propionic acid] was tested. Which IC50 did it give?
**A.** < 10 µM

**Q.** `COc1ccc(CN2CC=C(CCC(=O)O)C2=O)c(OC)c1` [Example 16, 3-[1-(2,4-dimethoxy-benzyl)-2-oxo-2,5-dihydro-1H-pyrrol-3-yl]-propionic acid] was tested. Which IC50 did it give?
**A.** > 10 µM

**Q.** With `O=C(CC1=CCCN(CCCCc2ccccc2)C1=O)NO` [Example 86, N-hydroxy-2-[2-oxo-1-(4-phenyl-butyl)-1,2,5,6-tetrahydro-pyridin-3-yl]-N-hydroxy-acetamide] as the compound, how does the IC50 read?
**A.** < 5 µM

**Q.** How did the IC50 turn out when `O=C(CCC1=CCN(CCc2ccc3ccccc3c2)C1=O)NO` [Example 53, N-hydroxy-3-[1-(2-naphthalene-2-yl-ethyl)-2-oxo-2,5-dihydro-1H-pyrrol-3-yl]-propionamide] was run?
**A.** < 1 µM

**Q.** `O=C(O)CC1=CCCN(CCCCc2ccccc2)C1=O` [Example 91, [2-oxo-1-(4-phenyl-butyl)-1,2,5,6-tetrahydro-pyridin-3-yl)-acetic acid] was tested. Which IC50 did it give?
**A.** < 10 µM

**Q.** With `O=C(CCC1=CCN(CCCCc2ccccc2)C1=O)NO` [Example 5, N-hydroxy-3-[2-oxo-1-(4-phenyl-butyl)-2,5-dihydro-1H-pyrrol-3-yl]-propionamide] as the compound, how does the IC50 read?
**A.** < 5 µM

**Q.** `O=C(CCC1=CCN(CCc2ccccc2Br)C1=O)NO` [Example 34, 3-{1-[2-(2-bromo-phenyl)-ethyl]-2-oxo-2,5-dihydro-1H-pyrrol-3-yl}-N-hydroxy-propionamide] was tested. Which IC50 did it give?
**A.** < 5 µM

**Q.** Which IC50 does the source give for `O=C(CCC1=CCN(CCc2ccc(F)cc2)C1=O)NO` [Example 30, 3-{1-[2-(4-fluoro-phenyl)-ethyl]-2-oxo-2,5-dihydro-1H-pyrrol-3-yl}-N-hydroxy-propionamide] here?
**A.** < 5 µM

**Q.** With `COc1ccc(CN2CC=C(CCC(=O)NO)C2=O)c(OC)c1` [Example 1, 3-[1-(2,4-Dimethoxybenzyl)-2-oxo-2,5-dihydro-1H-pyrrol-3-yl]-N-hydroxypropionamide] as the compound, how does the IC50 read?
**A.** < 10 µM

**Q.** For `O=C(CCC1=CCN(CCCc2ccc(Br)cc2)C1=O)NO` [Example 44, 3-{1-[3-(4-bromo-phenyl)-propyl]-2-oxo-2,5-dihydro-1H-pyrrol-3-yl]-N-hydroxy-propionamide], which IC50 is on record?
**A.** < 5 µM

**Q.** How did the IC50 turn out when `C=CCN1CCC=C(CCC(=O)NO)C1=O` [Example 101, 3-(1-Allyl-2-oxo-1,2,5,6-tetrahydro-pyridin-3-yl)-N-hydroxy-propionamide] was run?
**A.** < 1 µM

Same assay, conditions: Table 23, LPS 0.3 μg/ml, 24 hours, compounds up to 10 μM, IC50 unit not given

**Q.** Which TNF-alpha inhibition does the source give for `O=C(CCC1=CCN(CCCc2ccc3ccccc3c2)C1=O)NO` [Example 56, N-hydroxy-3-[1-(3-naphthalene-2-yl-propyl)-2-oxo-2,5-dihydro-1H-pyrrol-3-yl]-propionamide] here?
**A.** AAA

**Q.** How did the TNF-alpha inhibition turn out when `Cc1ccc(CCN2CC=C(CCC(=O)NO)C2=O)cc1` [Example 39, N-hydroxy-3-[2-oxo-1-(2-p-tolyl-ethyl)-2,5-dihydro-1H-pyrrol-3-yl]-propionamide] was run?
**A.** AAA
